Measurements published in paper PMC8070144, “The YfkO Nitroreductase from Bacillus Licheniformis on Gold-Coated Superparamagnetic Nanoparticles: Towards a Novel Directed Enzyme Prodrug Therapy Approach” (Pharmaceutics, 2021).

Columns and labels:
NfnB-cys [1] = biological target: T1, NfnB-cys (Escherichia coli, UniProt P38489); assay: UV-Vis spectra with time, NADH oxidation at […] nm; type: biochemical; conditions: free enzyme; CB1954 100 µM; 50 mM phosphate pH 7.2; methods print NADPH, results print NADH
T1 construct: gene nfsB; recombinant, pET28a(+) in E. coli Rosetta BL21(DE3) (printed B21 DE3); N-terminal Cys tag and His tag kept; Ni IMAC, FMN-saturated, PD10 desalted

NfnB-cys [2] = biological target: T1, NfnB-cys; assay: UV-Vis spectra with time, product at […] nm; type: biochemical; conditions: free enzyme; CB1954 100 µM; 50 mM phosphate pH 7.2; cofactor NADH in results (NADPH 300 µM in methods)
YfkO-cys = system: T2, YfkO-cys; assay: absorbance at […] nm, hydroxylamine product formation, plate reader; type: biochemical, Bacillus licheniformis; conditions: free enzyme; NADH 400 µM; 50 mM phosphate pH 7.2; 37 °C; CB1954 0.1-10 mM
T2 construct: recombinant, pET28a(+) in E. coli Rosetta BL21(DE3) (printed B21 DE3); N-terminal Cys tag and His tag kept; Ni IMAC, FMN-saturated, PD10 desalted

T1 sequence (P38489 whole entry): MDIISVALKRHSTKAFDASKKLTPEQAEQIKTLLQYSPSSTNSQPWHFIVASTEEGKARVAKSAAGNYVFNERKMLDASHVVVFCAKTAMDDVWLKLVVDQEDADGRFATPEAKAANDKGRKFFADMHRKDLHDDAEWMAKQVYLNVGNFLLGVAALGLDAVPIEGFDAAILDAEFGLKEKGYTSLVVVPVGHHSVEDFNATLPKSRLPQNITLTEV

Structure (SMILES)	UV-Vis spectra with time, NADH oxidation at 340 nm (NfnB-cys [1])	UV-Vis spectra with time, product at 420 nm (NfnB-cys [2])	Km (YfkO-cys)
NC(=O)C1=CN([C@@H]2O[C@H](COP(=O)(O)OP(=O)(O)OC[C@H]3O[C@@H](n4cnc5c(N)ncnc54)[C@H](O)[C@@H]3O)[C@@H](O)[C@H]2O)C=CC1 [NADH]	scans obtained for NfnB-cys, free and immobilised, were almost identical to these		
NC(=O)c1cc(N2CC2)c([N+](=O)[O-])cc1[N+](=O)[O-] [compound 1, 5-(aziridin-1-yl)-2,4-dinitrobenzamide]		scans obtained for NfnB-cys, free and immobilised, were almost identical to these	830 ± 250 µM
